# Measurements from patent US11427539B2, “Beta-hydroxy heterocyclic amines and their use in the treatment of hyperglycaemia” (ATROGI AB, priority 2017, dated 2022).
# Where a name gives a salt, the structure may show the parent alone. Read-outs that look alike come from different tables or passages of the source.
# Assays:
# [1] = test system: Intracellular cAMP levels in differentiated cells (L6-myotubes); assay: Measurement of intracellular cAMP levels (alpha screen cAMP kit); assay type: cell-based; details: for Emax: 0.25 h, read-out: Biological example 2: intracellular cAMP levels, activity compared to that of isoproterenol
# Experimental: L6-myoblasts were grown in Dulbecco's Modified Eagle's Medium (DMEM) containing 4.5 g/l glucose supplemented with 10% fetal bovine serum, 2 mM L-Glutamine, 50 U/ml penicillin, 50 μg/ml streptomycin and 10 mM HEPES. Cells were plated at 1×10^5 cells per ml in 24-well plates. After reaching 90% confluence the cells were grown in medium containing 2% FBS for 7 days where upon cells differentiated into myotubes. Differentiated cells were serum-starved over night and stimulated with agonist, final concentration 1×10-^5, for 15 min in stimulation buffer (HBSS supplemented with 1% BSA, 5 mM HEPES and 1 mM IBMX, pH 7.4) The medium was then aspirated and to end the reaction 100 μL of 95% EtOH was added to each well of a 24-well plate and cells were kept in −20° C. over night. The EtOH was let to evaporate and 500 μL of lysis buffer (1% BSA, 5 mM HEPES and 0.3% Tween-20, pH 7.4) was added to each well before put in −80° C. for 30 min and then kept in −20° C. Intracellular cAMP levels were detected using an alpha screen cAMP kit (6760635D from Perkin Elmer). The activity for each compound is compared to that of isoproterenol.
# [2] = test system: Differentiated L6-myotubes; assay: Glucose uptake in differentiated L6-myotubes (3H-2-deoxy-glucose); assay type: cell-based; details: for Emax: read-out: Biological example 1: glucose uptake, activity compared to that of isoproterenol; for Biological example 1: glucose uptake, activity compared to that of isoproterenol: Hydrochloride
# [3] = agonist final concentration 1×10-^5, 15 min, differentiated cells, relative to isoproterenol
# [4] = agonist final concentration 1×10^−5, L6-myotubes, 3H-2-deoxy-glucose uptake, relative to isoproterenol
Compound,"Emax [1, 3]","Emax [2, 4]",also measured
"C[C@H]1CC[C@@H]([C@H](O)c2cccc(O)c2)N1 (racemic) [Example 9, Racemic mixture of 3-((R)-Hydroxy((2S,5S)-5-methylpyrrolidin-2-yl)methyl)-phenol Acetate and 3-((S)-Hydroxy((2R,5R)-5-methylpyrrolidin-2-yl)methyl)phenol Acetate]",< 25%,50 to 75%,–
"C[C@@H]1CC[C@H]([C@H](O)c2cccc(O)c2)N1 (racemic) [Example 10, Racemic Mixture of 3-((R)-Hydroxy((2R,5R)-5-methylpyrrolidin-2-yl)methyl)-phenol Acetate and 3-((S)-Hydroxy((2S,5S)-5-methylpyrrolidin-2-yl)methyl)phenol Acetate]",< 25%,> 75%,–
"C[C@H]1CC[C@@H]([C@H](O)c2ccccc2)N1 (racemic) [Example 11, Racemic mixture of (R)-((2S,5S)-5-Methylpyrrolidin-2-yl)(phenyl)methanol and (S)-((2R,5R)-5-Methylpyrrolidin-2-yl)(phenyl)methanol]",–,–,Emax [1]: < 25%; Emax [2]: 25 to 50%
"C[C@@H]1CC[C@H]([C@H](O)c2ccccc2)N1 (racemic) [Example 12, Racemic mixture of (R)-((2R,5R)-5-Methylpyrrolidin-2-yl)(phenyl)methanol and (S)-((2S,5S)-5-Methylpyrrolidin-2-yl)(phenyl)methanol]",–,–,Emax [1]: < 25%; Emax [2]: 50 to 75%
"CCCC1CCC[C@H](C(O)c2cccc(O)c2)N1 (stereo in doubt) [Example 19, 3-((R)-Hydroxy((2R,6R)-6-propylpiperidin-2-yl)methyl)phenol Hydrochloride]",< 25%,25 to 50%,–
"CCC[C@@H]1CCCC([C@@H](O)c2cccc(O)c2)N1 (stereo in doubt) [Example 33, 3-((S)-hydroxy((2S,6R)-6-propylpiperidin-2-yl)methyl)phenol Hydrochloride]",–,–,"Biological example 2: intracellular cAMP levels, activity compared to that of isoproterenol [1, 3]: − (less than 25%); Biological example 1: glucose uptake, activity compared to that of isoproterenol [2, 4]: ++ (between 75 and 50%)"
"CCC[C@H]1CC[C@H](C(O)c2cccc(O)c2)N1 (stereo in doubt) [Example 46, 3-((R)-hydroxy((2R,5S)-5-propylpyrrolidin-2-yl)methyl)phenol]",< 25%,50 to 75%,–
"CCC[C@@H]1CCC[C@H]([C@H](O)c2cccc(F)c2)N1 [Example 1, (R)-(3-Fluorophenyl)((2R,6R)-6-propylpiperidin-2-yl)methanol]",< 25%,25 to 50%,–
"CCC[C@H]1CCC[C@H]([C@H](O)c2cccc(F)c2)N1 [Example 2, (R)-(3-Fluorophenyl)((2R,6S)-6-propylpiperidin-2-yl)methanol]",< 25%,> 75%,–
"CCC[C@H]1CCC[C@H]([C@H](O)c2cc(F)cc(F)c2)N1 [Example 3, (R)-(3,5-Difluorophenyl)((2R,6S)-6-propylpiperidin-2-yl)methanol]",< 25%,> 75%,–
"CCC[C@H]1CCC[C@H]([C@H](O)c2ccc(F)c(F)c2)N1 [Example 4, (R)-(3,4-Difluorophenyl)((2R,6S)-6-propylpiperidin-2-yl)methanol]",< 25%,50 to 75%,–
"CCC[C@H]1CCC[C@H]([C@H](O)c2cccc(O)c2)N1 [Example 5, 3-((R)-Hydroxy((2R,6S)-6-propylpiperidin-2-yl)methyl)phenol Acetate]",< 25%,> 75%,–
"CCC[C@@H]1CCC[C@H]([C@H](O)c2cccc(O)c2)N1 [Example 6, 3-((R)-Hydroxy((2R,6R)-6-propylpiperidin-2-yl)methyl)phenol]",< 25%,50 to 75%,–
"CCC[C@@H]1CC[C@H]([C@H](O)c2cccc(F)c2)N1 [Example 7, (R)-(3-Fluorophenyl)((2R,5R)-5-propylpyrrolidin-2-yl)methanol Acetate]",< 25%,> 75%,–
"CCC[C@@H]1CC[C@H]([C@H](O)c2cccc(O)c2)N1 [Example 8, 3-((R)-Hydroxy((2R,5R)-5-propylpyrrolidin-2-yl)methyl)phenol]",25 to 50%,> 75%,–
"CCC[C@@H]1CCC[C@H]([C@@H](O)c2cccc(F)c2)N1 [Example 13, (S)-(3-Fluorophenyl)((2R,6R)-6-propylpiperidin-2-yl)methanol]",< 25%,50 to 75%,–
"CCC[C@@H]1CCC[C@H]([C@@H](O)c2cccc(O)c2)N1 [Example 14, 3-((S)-Hydroxy((2R,6R)-6-propylpiperidin-2-yl)methyl)phenol Hydrochloride]",< 25%,–,"Biological example 1: glucose uptake, activity compared to that of isoproterenol [2, 4]: + (between 50 and 25%)"
"CCC[C@@H]1CCC[C@H]([C@H](O)c2ccc(F)cc2)N1 [Example 15, (R)-(4-Fluorophenyl)((2R,6R)-6-propylpiperidin-2-yl)methanol]",< 25%,50 to 75%,–
"CCC[C@@H]1CCC[C@H]([C@H](O)c2ccccc2F)N1 [Example 16, (R)-(2-Fluorophenyl)((2R,6R)-6-propylpiperidin-2-yl)methanol]",< 25%,50 to 75%,–
"CCC[C@@H]1CCC[C@H]([C@@H](O)c2ccccc2F)N1 [Example 17, (S)-(2-Fluorophenyl)((2R,6R)-6-propylpiperidin-2-yl)methanol hydrochloride]",< 25%,25 to 50%,–
"CCC[C@H]1CCC[C@H]([C@@H](O)c2cccc(F)c2)N1 [Example 18, (S)-(3-Fluorophenyl)((2R,6S)-6-propylpiperidin-2-yl)methanol]",< 25%,50 to 75%,–
"CCC[C@H]1CCC[C@H]([C@H](O)c2cccc(Cl)c2)N1 [Example 20, (R)-(3-Chlorophenyl)((2R,6S)-6-propylpiperidin-2-yl)methanol hydrochloride]",< 25%,25 to 50%,–
"CCC[C@H]1CCC[C@H]([C@@H](O)c2cccc(Cl)c2)N1 [Example 21, (S)-(3-Chlorophenyl)((2R,6S)-6-propylpiperidin-2-yl)methanol hydrochloride]",< 25%,25 to 50%,–
"CCC[C@H]1CCC[C@H]([C@H](O)c2ccccc2F)N1 [Example 22, (R)-(2-Fluorophenyl)((2R,6S)-6-propylpiperidin-2-yl)methanol]",< 25%,50 to 75%,–
"CCC[C@H]1CCC[C@H]([C@H](O)c2ccccc2Cl)N1 [Example 24, (R)-(2-Chlorophenyl)((2R,6S)-6-propylpiperidin-2-yl)methanol]",< 25%,25 to 50%,–
"CCC[C@H]1CCC[C@H]([C@H](O)c2ccc(F)cc2)N1 [Example 25, (R)-(4-Fluorophenyl)((2R,6S)-6-propylpipehdin-2-yl)methanol]",< 25%,50 to 75%,–
"CCC[C@H]1CCC[C@H]([C@@H](O)c2cc(F)cc(F)c2)N1 [Example 27, (S)-(3,5-Difluorophenyl)((2R,6S)-6-propylpiperidin-2-yl)methanol acetate]",< 25%,25 to 50%,–
"CCC[C@H]1CCC[C@H]([C@@H](O)c2ccc(F)c(F)c2)N1 [Example 28, (S)-(3,4-Difluorophenyl)((2R,6S)-6-propylpiperidin-2-yl)methanol]",< 25%,25 to 50%,–
